This assay has as its target T1, cGAMP binding domain of wild-type (GRR) human STING, residues 155-341 (Homo sapiens, UniProt Q86WV6, H232R).
T1 construct: His-TEV-hSTING (WT); TEV protease cleavage site (N); made in house; host or cells: E. coli BL21 DE3
As to the kind of experiment: Increase of stability of STING protein against thermal denaturation, Differential Scanning Fluorimetry (DSF). The gist of the method:
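3 µM His-tagged protein with 100 uM compound, 5×SYPRO Orange, 2% DMSO in 20 mM Tris, 150 mM NaCl, pH7.5; 15–95 °C ramp in 0.5 °C steps (15 s/cycle). Tm from Boltzmann fit of the dye melt curve, duplicates averaged, repeated if SD>1.5 °C; ΔTm = Tm with compound minus Tm of protein alone.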

T1 sequence (Q86WV6 with tags, fused parts or gaps H232R): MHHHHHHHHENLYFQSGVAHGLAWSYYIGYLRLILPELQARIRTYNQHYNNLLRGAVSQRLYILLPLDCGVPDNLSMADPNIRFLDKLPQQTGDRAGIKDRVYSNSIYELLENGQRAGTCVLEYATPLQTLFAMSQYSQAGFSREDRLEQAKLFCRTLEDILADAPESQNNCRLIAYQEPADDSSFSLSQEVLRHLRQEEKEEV

`Cc1nc2nn(C)cc2cc1-n1nc(-c2cccc3nn(C[C@H](OCC(N)=O)c4ccccc4)cc23)c(C(C)C)c1C` [Example 108, 2-[(1R) -2-[4-(1-{2,6-dimethyl-2H-pyrazolo[3,4-b]pyridin-5-yl}-5-methyl-4-(propan-2-yl)-1H-pyrazol-3-yl)-2H-indazol-2-yl]-1-phenylethoxy]acetamide] gave a DSF of 27 K.

In turn, `Cc1nc2nn(CC#N)cc2cc1-n1nc(-c2cccc3nn(C[C@H](O)c4ccccc4)cc23)c(C(C)C)c1C` [Example 98, 2-[5-(3-{2-[(2R)-2-hydroxy-2-phenylethyl]-2H-indazol-4-yl}-5-methyl-4-(propan-2-yl)-1H-pyrazol-1-yl)-6-methyl-2H-pyrazolo[3,4-b]pyridin-2-yl]acetonitrile] came in with a DSF of 29 K.

`Cc1nc2nn(CCCC#N)cc2cc1-n1nc(-c2cccc3nn(C[C@H](O)c4ccccc4)cc23)c(C(C)C)c1C` [Example 2, 4-[5-(3-{2-[(2R)-2-hydroxy-2-phenylethyl]-2H-indazol-4-yl}-5-methyl-4-(propan-2-yl)-1H-pyrazol-1-yl)-6-methyl-2H-pyrazolo[3,4-b]pyridin-2-yl]butanenitrile] displayed a DSF of 28 K. For `CC(C)c1c(-c2cccc3nn(C[C@H](O)c4ccccc4)cc23)nc(-c2cc3cn(C)nc3cc2OC(F)(F)F)n1C` [Example 109, (1R)-2-(4-{1-methyl-2-[2-methyl-6-(trifluoromethoxy)-2H-indazol-5-yl]-5-(propan-2-yl)-1H-imidazol-4-yl}-2H-indazol-2-yl)-1-phenylethan-1-ol] the value was 27 K; for `Cc1nc2nn(C)cc2cc1-n1nc(-c2cccc3nn(C[C@H](O)c4ccc(F)cc4)cc23)c(C(C)C)c1C` [Example 46, (1R)-2-[4-(1-{2,6-dimethyl-2H-pyrazolo[3,4-b]pyridin-5-yl}-5-methyl-4-(propan-2-yl)-1H-pyrazol-3-yl)-2H-indazol-2-yl]-1-(4-fluorophenyl)ethan-1-ol], 27 K; for `COCc1nc2nn(C)cc2cc1-n1nc(-c2cccc3nn(C[C@H](O)c4ccccc4)cc23)c(C(C)C)c1C` [Example 17, (1R)-2-(4-{1-[6-(methoxymethyl)-2-methyl-2H-pyrazolo[3,4-b]pyridin-5-yl]-5-methyl-4-(propan-2-yl)-1H-pyrazol-3-yl}-2H-indazol-2-yl)-1-phenylethan-1-ol], 27 K. Turning to `Cc1nc2nn(CCCN3CCN(C)CC3)cc2cc1-n1nc(-c2cccc3nn(C[C@H](O)c4ccccc4)cc23)c(C(C)C)c1C` [Example 7, (1R)-2-[4-(5-methyl-1-{6-methyl-2-[3-(4-methylpiperazin-1-yl)propyl]-2H-pyrazolo[3,4-b]pyridin-5-yl}-4-(propan-2-yl)-1H-pyrazol-3-yl)-2H-indazol-2-yl]-1-phenylethan-1-ol], the DSF turned out to be 25 K. `Cc1nc2nn(C)cc2cc1-n1nc(-c2cccc3nn(C[C@H](OCCO)c4ccccc4)cc23)c(C(C)C)c1C` [Example 8, 2-[(1R)-2-[4-(1-{2,6-dimethyl-2H-pyrazolo[3,4-b]pyridin-5-yl}-5-methyl-4-(propan-2-yl)-1H-pyrazol-3-yl)-2H-indazol-2-yl]-1-phenylethoxy]ethan-1-ol] had a DSF of 24 K. In turn, `Cc1nc2nn(CCCO)cc2cc1-n1nc(-c2cccc3nn(C[C@H](O)c4ccccc4)cc23)c(C(C)C)c1C` [Example 32, 3-[5-(3-{2-[(2R)-2-hydroxy-2-phenylethyl]-2H-indazol-4-yl}-5-methyl-4-(propan-2-yl)-1H-pyrazol-1-yl)-6-methyl-2H-pyrazolo[3,4-b]pyridin-2-yl]propan-1-ol] returned a DSF of 28 K. `Cn1cc2cc(-c3nc(-c4cccc5nn(C[C@H](O)c6ccc(OCCC(C)(C)O)cc6)cc45)c(C4CC4)n3C)c(C3CC3)nc2n1` [Example 41, 4-{4-[(1R)-2-[4-(5-cyclopropyl-2-{6-cyclopropyl-2-methyl-2H-pyrazolo[3,4-b]pyridin-5-yl}-1-methyl-1H-imidazol-4-yl)-2H-indazol-2-yl]-1-hydroxyethyl]phenoxy}-2-methylbutan-2-ol] had a DSF of 30 K. In turn, `Cc1nc2nn(CCCN3CCC(F)(F)C3)cc2cc1-n1nc(-c2cccc3nn(C[C@H](O)c4ccccc4)cc23)c(C(C)C)c1C` [Example 40, (1R)-2-[4-(1-{2-[3-(3,3-difluoropyrrolidin-1-yl)propyl]-6-methyl-2H-pyrazolo[3,4-b]pyridin-5-yl}-5-methyl-4-(propan-2-yl)-1H-pyrazol-3-yl)-2H-indazol-2-yl]-1-phenylethan-1-ol] had a DSF of 27 K. For `CSc1nc2nn(C)cc2cc1-n1nc(-c2cccc3nn(C[C@H](O)c4ccccc4)cc23)c(C(C)C)c1C` [Example 20, (1R)-2-(4-{5-methyl-1-[2-methyl-6-(methylsulfanyl)-2H-pyrazolo[3,4-b]pyridin-5-yl]-4-(propan-2-yl)-1H-pyrazol-3-yl}-2H-indazol-2-yl)-1-phenylethan-1-ol] the value was 27 K; for `CCCc1nc2nn(C)cc2cc1-n1nc(-c2cccc3nn(C[C@H](O)c4ccccc4)cc23)c(C(C)C)c1C` [Example 60, (1R)-2-[4-(5-methyl-1-{2-methyl-6-propyl-2H-pyrazolo[3,4-b]pyridin-5-yl}-4-(propan-2-yl)-1H-pyrazol-3-yl)-2H-indazol-2-yl]-1-phenylethan-1-ol], 28 K. The value for `Cc1nc2nn(CCCCO)cc2cc1-n1nc(-c2cccc3nn(C[C@H](O)c4ccccc4)cc23)c(C(C)C)c1C` [Example 12, 4-[5-(3-{2-[(2R)-2-hydroxy-2-phenylethyl]-2H-indazol-4-yl}-5-methyl-4-(propan-2-yl)-1H-pyrazol-1-yl)-6-methyl-2H-pyrazolo[3,4-b]pyridin-2-yl]butan-1-ol] was 29 K. Take `Cc1nc2nn(Cc3cnn(C)c3)cc2cc1-n1nc(-c2cccc3nn(C[C@H](O)c4ccccc4)cc23)c(C(C)C)c1C` [Example 24, (1R)-2-[4-(5-methyl-1-{6-methyl-2-[(1-methyl-1H-pyrazol-4-yl)methyl]-2H-pyrazolo[3,4-b]pyridin-5-yl}-4-(propan-2-yl)-1H-pyrazol-3-yl)-2H-indazol-2-yl]-1-phenylethan-1-ol]: the DSF was 30 K. Regarding `Cc1c(C(C)C)c(-c2cccc3nn(C[C@H](O)c4ccccc4)cc23)nn1-c1cc2cn(C)nc2nc1C1CCCN1` (stereo partly drawn) [Example 111, (1R)-2-(4-{5-Methyl-1-[2-methyl-6-(pyrrolidin-2-yl)-2H-pyrazolo[3,4-b]pyridin-5-yl]-4-(propan-2-yl)-1H-pyrazol-3-yl}-2H-indazol-2-yl)-1-phenylethan-1-ol], the DSF turned out to be 24 K. `Cc1c(C(C)C)c(-c2cccc3nn(C[C@H](O)c4ccccc4)cc23)nn1-c1cc2cn(C)nc2nc1C1(F)CC1` [Example 51, (1R)-2-(4-{1-[6-(1-fluorocyclopropyl)-2-methyl-2H-pyrazolo[3,4-b]pyridin-5-yl]-5-methyl-4-(propan-2-yl)-1H-pyrazol-3-yl}-2H-indazol-2-yl)-1-phenylethan-1-ol] came in with a DSF of 26 K. In turn, `Cc1c(C(C)C)c(-c2cccc3nn(C[C@H](O)c4ccccc4)cc23)nn1-c1cc2cn(C)nc2nc1C(C)O` (stereo partly drawn) [Example 19, (1R)-2-(4-{1-[6-(1-hydroxyethyl)-2-methyl-2H-pyrazolo[3,4-b]pyridin-5-yl]-5-methyl-4-(propan-2-yl)-1H-pyrazol-3-yl}-2H-indazol-2-yl)-1-phenylethan-1-ol] showed a DSF of 29 K. As for `Cc1nc2nn(CC(O)CO)cc2cc1-n1nc(-c2cccc3nn(C[C@H](O)c4ccccc4)cc23)c(C(C)C)c1C` (stereo partly drawn) [Example 67, 3-[5-(3-{2-[(2R)-2-hydroxy-2-phenylethyl]-2H-indazol-4-yl}-5-methyl-4-(propan-2-yl)-1H-pyrazol-1-yl)-6-methyl-2H-pyrazolo[3,4-b]pyridin-2-yl]propane-1,2-diol], the DSF is reported as 26 K. For `Cc1ccc([C@@H](O)Cn2cc3c(-c4nc(-c5cc6cn(C)nc6nc5C(C)C)n(C)c4C4CC4)cccc3n2)cc1` [Example 25, (1R)-2-(4-{5-cyclopropyl-1-methyl-2-[2-methyl-6-(propan-2-yl)-2H-pyrazolo[3,4-b]pyridin-5-yl]-1H-imidazol-4-yl}-2H-indazol-2-yl)-1-(4-methylphenyl)ethan-1-ol], the DSF is 30 K. For `Cc1nc2nn(CCN(C)C)cc2cc1-n1nc(-c2cccc3nn(C[C@H](O)c4ccccc4)cc23)c(C(C)C)c1C` [Example 39, (1R)-2-[4-(1-{2-[2-(dimethylamino)ethyl]-6-methyl-2H-pyrazolo[3,4-b]pyridin-5-yl}-5-methyl-4-(propan-2-yl)-1H-pyrazol-3-yl)-2H-indazol-2-yl]-1-phenylethan-1-ol] the value was 25 K; for `Cc1c(C(C)C)c(-c2cccc3nn(C[C@H](O)c4ccccc4)cc23)nn1-c1cc2cn(C)nc2nc1C1CCCO1` (stereo partly drawn) [Example 13, (1R)-2-(4-{5-methyl-1-[2-methyl-6-(oxolan-2-yl)-2H-pyrazolo[3,4-b]pyridin-5-yl]-4-(propan-2-yl)-1H-pyrazol-3-yl}-2H-indazol-2-yl)-1-phenylethan-1-ol], 30 K. The value for `Cc1c(C(C)C)c(-c2cccc3nn(C[C@H](O)c4ccccc4)cc23)nn1-c1cc2cn(C)nc2nc1C(F)F` [Example 64, (1R)-2-(4-{1-[6-(difluoromethyl)-2-methyl-2H-pyrazolo[3,4-b]pyridin-5-yl]-5-methyl-4-(propan-2-yl)-1H-pyrazol-3-yl}-2H-indazol-2-yl)-1-phenylethan-1-ol] was 26 K; that for `COC(C)c1nc2nn(C)cc2cc1-n1nc(-c2cccc3nn(C[C@H](O)c4ccccc4)cc23)c(C(C)C)c1C` (stereo partly drawn) [Example 58, (1R)-2-(4-{1-[6-(1-methoxyethyl)-2-methyl-2H-pyrazolo[3,4-b]pyridin-5-yl]-5-methyl-4-(propan-2-yl)-1H-pyrazol-3-yl}-2H-indazol-2-yl)-1-phenylethan-1-ol] was 28 K.

For the origin of these results see patent US20260265244A1, “HETEROCYCLIC COMPOUNDS AS STING ANTAGONISTS” (Boehringer Ingelheim International GmbH, priority 2022, published 2026).
